# Source: ChEMBL document CHEMBL1150461, “Synthesis of new 3-thiosubstituted carbacephem antibiotics and their activity against penicillin resistant Streptococcus pneumoniae” (1997)
# Assays:
# Assay type in all cases: functional
# Streptococcus pneumoniae [1] = assay: In vitro minimum inhibitory concentration against penicillin susceptible Streptococcus pneumoniae strains (number of strains = 3).
# Streptococcus pneumoniae [2] = assay: In vitro minimum inhibitory concentration against penicillin resistant Streptococcus pneumoniae strains (PRSP) (number of strains = 5).
# Streptococcus pneumoniae [3] = assay: In vitro minimum inhibitory concentration against penicillin intermediate Streptococcus pneumoniae strains (number of strains = 3).
Compound,MIC (Streptococcus pneumoniae [1]),MIC (Streptococcus pneumoniae [2]),MIC (Streptococcus pneumoniae [3])
N[C@@H](C(=O)N[C@@H]1C(=O)N2C(C(=O)O)=C(Sc3ccccn3)CC[C@H]12)c1ccccc1,0.06 µg/mL,2 µg/mL,1 µg/mL
CCSc1nnc(SC2=C(C(=O)O)N3C(=O)[C@@H](NC(=O)[C@H](N)c4ccccc4)[C@H]3CC2)s1,0.03 µg/mL,0.5 µg/mL,0.25 µg/mL
N[C@@H](C(=O)N[C@@H]1C(=O)N2C(C(=O)O)=C(Sc3ccncc3)CC[C@H]12)c1ccccc1,0.12 µg/mL,4 µg/mL,0.25 µg/mL
N[C@@H](C(=O)N[C@@H]1C(=O)N2C(C(=O)O)=C(Sc3cccs3)CC[C@H]12)c1ccccc1,0.25 µg/mL,16 µg/mL,2 µg/mL
N[C@@H](C(=O)N[C@@H]1C(=O)N2C(C(=O)O)=C(Sc3nncs3)CC[C@H]12)c1ccccc1,0.06 µg/mL,1 µg/mL,0.25 µg/mL
N[C@@H](C(=O)N[C@@H]1C(=O)N2C(C(=O)O)=C(Sc3ccccc3CO)CC[C@H]12)c1ccccc1,0.06 µg/mL,4 µg/mL,2 µg/mL
C[n+]1ccc(SC2=C(C(=O)[O-])N3C(=O)[C@@H](NC(=O)[C@H](N)c4ccccc4)[C@H]3CC2)cc1,0.25 µg/mL,4 µg/mL,1 µg/mL
N[C@@H](C(=O)N[C@@H]1C(=O)N2C(C(=O)O)=C(Sc3ccccc3Br)CC[C@H]12)c1ccccc1,0.06 µg/mL,2 µg/mL,0.25 µg/mL
N[C@@H](C(=O)N[C@@H]1C(=O)N2C(C(=O)O)=C(Sc3nnc(SCC4CC4)s3)CC[C@H]12)c1ccccc1,< 0.03 µg/mL,0.25 µg/mL,0.06 µg/mL
CSC1=C(C(=O)O)N2C(=O)[C@@H](NC(=O)[C@H](N)c3ccccc3)[C@H]2CC1,1 µg/mL,> 16 µg/mL,8 µg/mL
N[C@@H](C(=O)N[C@@H]1C(=O)N2C(C(=O)O)=C(Sc3cnns3)CC[C@H]12)c1ccccc1,0.06 µg/mL,1 µg/mL,0.25 µg/mL
Nc1nnc(SC2=C(C(=O)O)N3C(=O)[C@@H](NC(=O)[C@H](N)c4ccccc4)[C@H]3CC2)s1,0.06 µg/mL,2 µg/mL,0.5 µg/mL
Cn1ccnc1SC1=C(C(=O)O)N2C(=O)[C@@H](NC(=O)[C@H](N)c3ccccc3)[C@H]2CC1,1 µg/mL,> 16 µg/mL,8 µg/mL
N[C@@H](C(=O)N[C@@H]1C(=O)N2C(C(=O)O)=C(Sc3ncccn3)CC[C@H]12)c1ccccc1,0.12 µg/mL,4 µg/mL,0.5 µg/mL
N[C@@H](C(=O)N[C@@H]1C(=O)N2C(C(=O)O)=C(Sc3ccccc3)CC[C@H]12)c1ccccc1,0.06 µg/mL,4 µg/mL,1 µg/mL
N=C(N)SCc1ccccc1SC1=C(C(=O)O)N2C(=O)[C@@H](NC(=O)[C@H](N)c3ccccc3)[C@H]2CC1,0.02 µg/mL,0.5 µg/mL,0.25 µg/mL
Cn1cnnc1SC1=C(C(=O)O)N2C(=O)[C@@H](NC(=O)[C@H](N)c3ccccc3)[C@H]2CC1,0.5 µg/mL,> 16 µg/mL,4 µg/mL
N[C@@H](C(=O)N[C@@H]1C(=O)N2C(C(=O)O)=C(Sc3nc4ccccc4s3)CC[C@H]12)c1ccccc1,0.5 µg/mL,8 µg/mL,4 µg/mL
Cc1nnc(SC2=C(C(=O)O)N3C(=O)[C@@H](NC(=O)[C@H](N)c4ccccc4)[C@H]3CC2)s1,0.03 µg/mL,1 µg/mL,1 µg/mL
CSc1nnc(SC2=C(C(=O)O)N3C(=O)[C@@H](NC(=O)[C@H](N)c4ccccc4)[C@H]3CC2)s1,< 0.03 µg/mL,0.25 µg/mL,0.06 µg/mL
N[C@@H](C(=O)N[C@@H]1C(=O)N2C(C(=O)O)=C(Sc3nccs3)CC[C@H]12)c1ccccc1,0.12 µg/mL,4 µg/mL,2 µg/mL
N[C@@H](C(=O)N[C@@H]1C(=O)N2C(C(=O)O)=C(Cl)CC[C@H]12)c1ccccc1 [LORACARBEF ANHYDROUS],2 µg/mL,> 16 µg/mL,8 µg/mL
